The values below come from patent publication EP1247803A2, “Indolinone compounds suitable for modulation of protein kinases” (Sugen, Inc., priority 1996, dated 1998).

The target of this assay is T1, FLK-1 receptor (Mus musculus, UniProt P35918).
T1 construct: expressed in transfected cells; host or cells: NIH3T3 C7#3
T1 sequence (P35918 20-1345): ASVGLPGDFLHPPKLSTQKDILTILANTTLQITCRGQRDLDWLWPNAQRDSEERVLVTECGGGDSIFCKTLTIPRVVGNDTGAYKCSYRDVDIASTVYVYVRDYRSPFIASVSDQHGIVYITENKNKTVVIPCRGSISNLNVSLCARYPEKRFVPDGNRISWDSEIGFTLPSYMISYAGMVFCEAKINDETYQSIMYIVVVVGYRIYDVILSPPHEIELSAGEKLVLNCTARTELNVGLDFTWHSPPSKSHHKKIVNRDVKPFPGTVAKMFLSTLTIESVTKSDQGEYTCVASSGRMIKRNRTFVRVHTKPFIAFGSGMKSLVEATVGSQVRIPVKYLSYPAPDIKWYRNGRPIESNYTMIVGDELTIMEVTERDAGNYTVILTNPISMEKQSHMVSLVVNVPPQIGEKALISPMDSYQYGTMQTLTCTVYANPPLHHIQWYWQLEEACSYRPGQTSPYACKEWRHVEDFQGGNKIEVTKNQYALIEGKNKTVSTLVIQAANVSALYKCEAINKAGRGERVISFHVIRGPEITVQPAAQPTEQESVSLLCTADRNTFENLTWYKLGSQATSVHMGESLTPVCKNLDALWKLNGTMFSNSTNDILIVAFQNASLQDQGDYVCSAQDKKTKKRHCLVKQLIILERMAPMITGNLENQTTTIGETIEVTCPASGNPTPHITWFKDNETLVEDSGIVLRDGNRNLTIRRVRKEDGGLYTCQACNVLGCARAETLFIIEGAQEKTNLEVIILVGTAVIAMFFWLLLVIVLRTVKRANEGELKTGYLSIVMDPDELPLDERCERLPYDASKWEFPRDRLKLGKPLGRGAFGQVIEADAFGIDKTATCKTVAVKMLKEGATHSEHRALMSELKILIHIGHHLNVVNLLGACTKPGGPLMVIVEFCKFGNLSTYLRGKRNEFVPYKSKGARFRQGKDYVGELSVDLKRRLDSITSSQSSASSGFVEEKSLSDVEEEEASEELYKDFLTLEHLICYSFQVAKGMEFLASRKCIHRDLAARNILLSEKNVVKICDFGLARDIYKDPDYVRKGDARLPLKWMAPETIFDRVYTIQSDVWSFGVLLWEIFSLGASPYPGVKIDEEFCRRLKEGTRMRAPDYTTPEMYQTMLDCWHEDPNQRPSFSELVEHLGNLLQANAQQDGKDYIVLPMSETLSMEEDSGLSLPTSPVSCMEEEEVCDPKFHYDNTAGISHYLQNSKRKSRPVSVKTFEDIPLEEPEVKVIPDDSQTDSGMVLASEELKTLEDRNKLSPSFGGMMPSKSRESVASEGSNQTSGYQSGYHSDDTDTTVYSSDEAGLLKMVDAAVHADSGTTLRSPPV
The assay is described as follows: FLK-1 ELISA (kinase activity of the FLK-1 receptor in FLK-1/NIH3T3 cells, VEGF stimulated). The assay is classed as cell-based. In short, it runs like this: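 NIH3T3 C7#3 cells expressing FLK-1 were seeded at 25.000 cells/well, serum-starved overnight in 0.1% FBS, then treated with compound for two hours at 37°C (final DMSO 0.5%) before VEGF stimulation. Receptor was captured on anti-rabbit IgG-coated ELISA plates bearing affinity-purified anti-FLK-1 antiserum.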
In general terms: In an ELISA, binding on a coated surface is turned into a signal by an enzyme label.
In the case of `CCOc1ccc(C=C2C(=O)Nc3c(Br)cc(Br)cc32)cc1OC` [10719/A02], the “Fik Kinase %Inhibition” value is recorded as 21.4%.

As to `O=C1Nc2ccc(S(=O)(=O)Nc3ccc(C(F)(F)F)cc3)cc2C1=Cc1cc(Cl)ccc1O` [10734/E04], the “Fik Kinase %Inhibition” value was 10.7%.

Turning to `O=C1Nc2ccc(I)cc2C1=Cc1ccc(O)cc1` [10719/B07], the “Fik Kinase %Inhibition” value is listed as 12.5%. To `CCc1c(C)[nH]c(C=C2C(=O)Nc3ccc(I)cc32)c1C` [10719/B05] belongs 17.7%; to `O=C1Nc2ccc(CCCl)cc2C1=Cc1ccco1` [10718/G10], 7.1%. On to `Cc1c(Br)ccc2c1C(=Cc1ccc(O)c(O)c1)C(=O)N2` [10719/C03], for which the “Fik Kinase %Inhibition” value turned out to be 15.3%.

Take `O=C1Nc2ccc(S(=O)(=O)N3CCOCC3)cc2C1=Cc1ccc(Cl)c([N+](=O)[O-])c1` [10718/F08]: the “Fik Kinase %Inhibition” value is 15.3%.

Turning to `CCOC(=O)c1cc(C=C2C(=O)Nc3ccc(S(=O)(=O)N4CCOCC4)cc32)oc1C` [10718/F06], the “Fik Kinase %Inhibition” value was determined as 18.3%. Then `CCOc1ccccc1C=C1C(=O)Nc2ccc(I)cc21` [10717/B02], with 5.0%; and `O=C1Nc2c(Br)cc(Br)cc2C1=Cc1cccc([N+](=O)[O-])c1` [10719/A10], with 10.9%; and `CCN(CC)c1ccc(C=C2C(=O)Nc3ccc(S(=O)(=O)N4CCOCC4)cc32)c(O)c1` [10734/F05], with 9.8%. As to `CCOC(=O)CCc1c(C(=O)OCC)[nH]c(C=C2C(=O)Nc3ccc(S(=O)(=O)N4CCOCC4)cc32)c1CC(=O)OCC` [10718/F05], the “Fik Kinase %Inhibition” value was 19.5%. On to `Cc1c(Br)ccc2c1C(=Cc1ccc(F)cc1Cl)C(=O)N2` [10719/C09], for which the “Fik Kinase %Inhibition” value is reported as 23.5%.

Consider `CCOc1ccc(C=C2C(=O)Nc3ccc(Br)c(C)c32)cc1OC` [10719/C02], for which the “Fik Kinase %Inhibition” value came out at 4.1%.

Turning to `O=C1Nc2ccc(CCCl)cc2C1=Cc1ccc2ccccc2c1O` [10718/G04], the “Fik Kinase %Inhibition” value was determined as 1.8%. Consider `O=C1Nc2ccc(S(=O)(=O)N3CCOCC3)cc2C1=Cc1cc(Cl)ccc1O` [10734/F04], for which the “Fik Kinase %Inhibition” value was -2.6%. Take `O=C1Nc2ccc(S(=O)(=O)N3CCOCC3)cc2C1=Cc1ccc([N+](=O)[O-])cc1` [10734/F06]: the “Fik Kinase %Inhibition” value is 11.0%. Then `O=C1Nc2ccc(CCCl)cc2C1=Cc1ccc([N+](=O)[O-])cc1` [10734/G06], with 16.5%; and `O=C1Nc2ccc(CCCl)cc2C1=Cc1cc(Cl)cc(Cl)c1O` [10734/G03], with 18.7%. For `Cn1cccc1C=C1C(=O)Nc2ccc(I)cc21` [10717/B04], the “Fik Kinase %Inhibition” value is on record as -18.3%. Then `CC(C)(C)c1ccc(C=C2C(=O)Nc3ccc(S(=O)(=O)Nc4ccc(C(F)(F)F)cc4)cc32)cc1` [10734/E10], with 18.5%.

Consider `O=C1Nc2ccc(CCCl)cc2C1=Cc1cc(Br)cc(Br)c1O` [10734/G07], for which the “Fik Kinase %Inhibition” value turned out to be 21.9%. `COc1cc(OC)c(C=C2C(=O)Nc3c(Br)cc(Br)cc32)c(OC)c1` [10719/A06]: the “Fik Kinase %Inhibition” value amounted to 14.0%. For `CC(C)(C)c1ccc(C=C2C(=O)Nc3ccc(CCCl)cc32)cc1` [10734/G10], the “Fik Kinase %Inhibition” value was found to be 10.8%. For the compound `O=C1Nc2ccc(S(=O)(=O)N3CCOCC3)cc2C1=Cc1cc(Cl)cc(Cl)c1O` [10734/F03], the “Fik Kinase %Inhibition” value is 4.2%. Turning to `Cc1c(Br)ccc2c1C(=Cc1ccc(N(C)C)cc1)C(=O)N2` [10719/C08], the “Fik Kinase %Inhibition” value came out at 15.0%. Regarding `O=C1Nc2ccc(S(=O)(=O)N3CCOCC3)cc2C1=Cc1cccc(F)c1O` [10734/F08], the “Fik Kinase %Inhibition” value is listed as 4.8%.

As for `CCc1c(C)[nH]c(C=C2C(=O)Nc3ccc(Br)c(C)c32)c1C` [10719/C05], the “Fik Kinase %Inhibition” value came out at 25.6%.

`Cc1c(O)ccc(C=C2C(=O)Nc3ccc(CCCl)cc32)c1O` [10718/G09]: the “Fik Kinase %Inhibition” value was -12.8%. Consider `CCOc1cccc(C=C2C(=O)Nc3ccc(CCCl)cc32)c1O` [10734/G02], for which the “Fik Kinase %Inhibition” value is reported as 1.5%. To `O=C1Nc2ccc(S(=O)(=O)Nc3ccc(C(F)(F)F)cc3)cc2C1=Cc1cccc(F)c1O` [10734/E08] belongs 26.6%. Then `COc1cc(OC)c(C=C2C(=O)Nc3ccc(I)cc32)c(OC)c1` [10719/B06], with 21.3%.

On to `O=C1Nc2ccc(CCCl)cc2C1=Cc1ccc(O)c(Br)c1` [10734/G09], for which the “Fik Kinase %Inhibition” value is 8.5%. Consider `O=C1Nc2ccc(CCCl)cc2C1=Cc1cccc(F)c1O` [10734/G08], for which the “Fik Kinase %Inhibition” value is 11.6%. With `O=C1Nc2c(Br)cc(Br)cc2C1=Cc1ccc(F)cc1C(F)(F)F` [10719/A11], the “Fik Kinase %Inhibition” value amounted to 7.4%. Then `CN(C)c1ccc(C=C2C(=O)Nc3ccc(I)cc32)cc1` [10719/B08], with 4.0%; and `CCOc1cccc(C=C2C(=O)Nc3ccc(S(=O)(=O)N4CCOCC4)cc32)c1O` [10734/F02], with 6.2%. As to `COC(=O)c1[nH]c(C)c(C=C2C(=O)Nc3ccc(S(=O)(=O)N4CCOCC4)cc32)c1C(=O)OC` [10718/F07], the “Fik Kinase %Inhibition” value came out at 16.5%.

With `O=C1Nc2ccc(S(=O)(=O)N3CCOCC3)cc2C1=Cc1ccco1` [10718/F10], the “Fik Kinase %Inhibition” value was found to be 17.9%. In the case of `O=C1Nc2c(Br)cc(Br)cc2C1=Cc1ccc(F)cc1Cl` [10719/A09], the “Fik Kinase %Inhibition” value turned out to be 12.3%. To `CC(C)(C)c1ccc(C=C2C(=O)Nc3ccc(S(=O)(=O)N4CCOCC4)cc32)cc1` [10734/F10] belongs 14.8%. With `CCN(CC)c1ccc(C=C2C(=O)Nc3ccc(CCCl)cc32)c(O)c1` [10734/G05], the “Fik Kinase %Inhibition” value is given as 7.4%. Turning to `COC(=O)c1[nH]c(C)c(C=C2C(=O)Nc3ccc(CCCl)cc32)c1C(=O)OC` [10718/G07], the “Fik Kinase %Inhibition” value came out at 11.4%. For the compound `O=C1Nc2ccc(I)cc2C1=Cc1ccc(O)c(O)c1` [10719/B03], the “Fik Kinase %Inhibition” value is 14.2%.

For the compound `O=C1Nc2ccc(CCCl)cc2C1=Cc1cc(Cl)ccc1O` [10734/G04], the “Fik Kinase %Inhibition” value was -1.1%.

For `O=C1Nc2ccc(CCCl)cc2C1=Cc1ccc(Cl)c([N+](=O)[O-])c1` [10718/G08], the “Fik Kinase %Inhibition” value was 6.1%. Take `O=C1Nc2ccc(CCCl)cc2C1=Cc1ccc([N+](=O)[O-])o1` [10718/G11]: the “Fik Kinase %Inhibition” value amounted to 15.6%. For `CN(C)c1ccc(C=C2C(=O)Nc3c(Br)cc(Br)cc32)cc1` [10719/A08], the “Fik Kinase %Inhibition” value amounted to 11.9%. With `CCOC(=O)c1c(C)[nH]c(C=C2C(=O)Nc3ccc(CCCl)cc32)c1C` [10718/G02], the “Fik Kinase %Inhibition” value is on record as -2.5%.

As to `O=C1Nc2ccc(I)cc2C1=Cc1ccc(F)cc1Cl` [10719/B09], the “Fik Kinase %Inhibition” value amounted to 11.3%. As to `O=C1Nc2ccc(I)cc2C1=Cc1ccc(F)cc1C(F)(F)F` [10719/B11], the “Fik Kinase %Inhibition” value is recorded as 11.2%. Consider `O=C1Nc2ccc(I)cc2C1=Cc1cccc([N+](=O)[O-])c1` [10719/B10], for which the “Fik Kinase %Inhibition” value was determined as 1.1%.

Take `COc1cc(OC)c(C=C2C(=O)Nc3ccc(Br)c(C)c32)c(OC)c1` [10719/C06]: the “Fik Kinase %Inhibition” value turned out to be 47.7%. For the compound `COc1cc(Br)c(O)c(C=C2C(=O)Nc3ccc(S(=O)(=O)N4CCOCC4)cc32)c1` [10718/F03], the “Fik Kinase %Inhibition” value was -0.2%. Regarding `COc1cc(Br)c(O)c(C=C2C(=O)Nc3ccc(CCCl)cc32)c1` [10718/G03], the “Fik Kinase %Inhibition” value was -4.7%. Regarding `COc1ccc(C=C2C(=O)Nc3ccc(Br)c(C)c32)c(OC)c1` [10719/C04], the “Fik Kinase %Inhibition” value came to 59.9%. Turning to `O=C1Nc2c(Br)cc(Br)cc2C1=Cc1ccc(O)c(O)c1` [10719/A03], the “Fik Kinase %Inhibition” value stood at 3.9%. To `CCOC(=O)c1cc(C=C2C(=O)Nc3ccc(CCCl)cc32)oc1C` [10718/G06] belongs 9.8%; to `CCOc1ccc(C=C2C(=O)Nc3ccc(I)cc32)cc1OC` [10719/B02], 11.5%; to `O=C1Nc2ccc(I)cc2C1=Cc1ccc(F)cc1` [10717/B05], 1.0%. With `Cc1c(O)ccc(C=C2C(=O)Nc3ccc(S(=O)(=O)N4CCOCC4)cc32)c1O` [10718/F09], the “Fik Kinase %Inhibition” value is on record as -3.0%. Then `O=C1Nc2ccc(CCCl)cc2C1=Cc1ccc(Br)s1` [10734/G11], with 8.7%. For the compound `O=C1Nc2ccc(S(=O)(=O)N3CCOCC3)cc2C1=Cc1ccc(O)c(Br)c1` [10734/F09], the “Fik Kinase %Inhibition” value was -3.7%. For `CCc1c(C)[nH]c(C=C2C(=O)Nc3c(Br)cc(Br)cc32)c1C` [10719/A05], the “Fik Kinase %Inhibition” value is reported as 10.0%.

Turning to `O=C1Nc2ccc(I)cc2C1=Cc1cccs1` [10717/B03], the “Fik Kinase %Inhibition” value is given as -8.8%. As to `O=C1Nc2ccc(S(=O)(=O)Nc3ccc(C(F)(F)F)cc3)cc2C1=Cc1ccc(Br)s1` [10734/E11], the “Fik Kinase %Inhibition” value is given as 19.2%. For `O=C1Nc2ccc(S(=O)(=O)N3CCOCC3)cc2C1=Cc1ccc([N+](=O)[O-])o1` [10718/F11], the “Fik Kinase %Inhibition” value was 10.1%.

Turning to `O=C1Nc2ccc(S(=O)(=O)Nc3ccc(C(F)(F)F)cc3)cc2C1=Cc1ccc([N+](=O)[O-])cc1` [10734/E06], the “Fik Kinase %Inhibition” value worked out at 28.4%. Consider `CCOC(=O)c1c(C)[nH]c(C=C2C(=O)Nc3ccc(S(=O)(=O)N4CCOCC4)cc32)c1C` [10718/F02], for which the “Fik Kinase %Inhibition” value is on record as 20.1%. To `COc1ccc(C=C2C(=O)Nc3ccc(I)cc32)c(OC)c1` [10719/B04] belongs 24.9%; to `CCN(CC)c1ccc(C=C2C(=O)Nc3ccc(S(=O)(=O)Nc4ccc(C(F)(F)F)cc4)cc32)c(O)c1` [10734/E05], 10.6%. Turning to `O=C1Nc2c(Br)cc(Br)cc2C1=Cc1ccc(O)cc1` [10719/A07], the “Fik Kinase %Inhibition” value was 21.3%. As to `Cc1c(Br)ccc2c1C(=Cc1ccc(O)cc1)C(=O)N2` [10719/C07], the “Fik Kinase %Inhibition” value is on record as 31.2%.
